Data from US20110207729A1, “BICYCLIC ACYLGUANIDINE DERIVATIVE” (ASTELLAS PHARMA INC., priority 2007, published 2011).

Experiments:
human 5-HT5A receptor = target: T1, human 5-HT5A receptor (Homo sapiens, UniProt P47898); assay: Test on a human 5-HT5A receptor binding inhibition ([3H]5-CT); conditions: membrane from HEK293 cells expressing human 5-HT5A receptor; Ki calculated from IC50 and Kd 4.95 nM
T1 construct: expressed in transfected cells; membrane preparation
Outline: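 Membranes came from G418-selected HEK293 cells expressing human 5-HT5A, in Tris pH 7.4 with MgSO4 and EDTA. They were preincubated 15 min at RT with compound, then 2 nM [3H]5-CT solution was added for 60 min at 37 °C, followed by GF/C filtration and counting. IC50 used 1 µM 5-CT as 100%; Ki by Cheng–Prusoff (Kd 4.95 nM, Scatchard).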

Male ICR mouse [1] = assay: Hyperactivity caused by MK-801 in mice, infrared motion measurement; type: in vivo; conditions: oral, MK-801 0.3 mg/kg i.p., P<0.05
Description: (§1) Various Drug Evaluations on a Drug for Increasing the Motion of Mice (methamphetamine, MK-801) (Radiated Infrared Motion Measurement)
(§2) An effect of the compound (I) on improvement on schizophrenia by was evaluated by measuring the inhibited motion through the administration of the compound in a model having a symptom caused by methamphetamine (which is hereinafter simply referred to MAP) and MK-801.
(§3) An animal was taken out of a breeding cage, orally administered with a compound to be tested, and then placed into a cage for breeding. After 30 minutes, the animal was put into a cage for measurement, and the motion with the compound to be tested alone was measured. Further, after 30 to 90 minutes, the animal was taken out, and intraperitoneally administered with a drug for increasing the motion (MAP; 1 mg/kg or MK-801; 0.3 mg/kg, dissolved in a physiological saline, respectively). Then, the motion for a certain period of time (60 minutes) was measured by using a motion measurement device (CompACT AMS from Muromachi Kikai Co., Ltd.) by means of an infrared sensor.
(§4) For a normal mouse (a mouse administered with physiological saline) and a mouse administered with a drug for increasing the motion, a Student's T test was performed for evaluation for each interval. […]

Male ICR mouse [2] = assay: Hyperactivity caused by methamphetamine (MAP) in mice, infrared motion measurement; type: in vivo; conditions: dose of 0.03 mg/kg, oral; MAP 1 mg/kg i.p.; P<0.05
Description: as §1, §2, §3, §4

Male ddY mouse = assay: Spontaneous alternation behavior (Y-maze) impaired by Scoporamine in mice; type: in vivo; conditions: dose of 0.03 mg/kg, oral, Scoporamine 0.5 mg/kg i.p., p<0.05
Description: An improvement effect for spontaneous alternation behavior caused by Scoporamine or MK-801 in mice
An effect of the compound (I) on improvement on cognitive impairment was evaluated by using a known performance test method as a model with short-term learning disorder.
The compound to be tested was administered orally 10 to 30 minutes before the test, and 0.5 mg/kg Scoporamine or 0.15 mg/kg MK-801 (for a normal group, physiological saline) was administered intraperitoreally, and the test was performed after 20 minutes. […]
A mouse was placed at the end of one arm of a Y-maze having arms with the same length in three directions, and then explored freely and the number of arm entries was counted for 8 minutes. […] The ratio of the number of the behaviors to the total number of entries was calculated as an alternation rate by the following formula: […]
If a significant difference between the normal group and the control group (Student's t test) was approved in the alternation rate (%), it was considered to have learning disorder by the administration of Scoporamine or MK-801. By carrying out a Dunnett's test on the group administered with the compound to be tested relative to the control group, the presence or absence of an action of the compound to be tested on learning disorder was evaluated. […]

T1 sequence (P47898 whole entry): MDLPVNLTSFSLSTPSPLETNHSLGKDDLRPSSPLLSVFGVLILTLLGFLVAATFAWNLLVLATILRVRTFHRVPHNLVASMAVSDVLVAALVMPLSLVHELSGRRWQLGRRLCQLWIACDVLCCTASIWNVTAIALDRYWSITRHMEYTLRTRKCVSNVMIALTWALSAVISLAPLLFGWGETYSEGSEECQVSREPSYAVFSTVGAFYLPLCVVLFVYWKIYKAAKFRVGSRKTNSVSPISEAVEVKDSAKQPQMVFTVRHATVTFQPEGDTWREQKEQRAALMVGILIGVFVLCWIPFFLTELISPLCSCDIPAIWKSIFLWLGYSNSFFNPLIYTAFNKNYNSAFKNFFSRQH

Ki (human 5-HT5A receptor) [nM]	Compound	inhibition of hyperactivity caused by MK-801 (Male ICR mouse [1]; dose of 0.1 mg/kg)	inhibition of hyperactivity caused by MK-801 (Male ICR mouse [1]; dose of 0.03 mg/kg)	inhibition of hyperactivity caused by methamphetamine (Male ICR mouse [2])	improvement of alternation rate impaired by Scoporamine (Male ddY mouse)
0.3 to 3	Cc1ccc(C2=CCOc3ccc(C(=O)N=C(N)N)cc32)c(F)c1 [Example 1-47]	significantly inhibited			
0.3 to 3	COc1ccccc1C1=CCCc2ccc(C(=O)N=C(N)N)cc21 [Example 2-06]		significantly inhibited		
0.3 to 3	NC(N)=NC(=O)c1ccc2c(c1)C(c1ccccc1)=CCC2 [Example 2-37]			significantly inhibited	significantly improved
